Among the data in US11319315B2, “Cyclohexyl acid triazole azoles as LPA antagonists” (BRISTOL-MYERS SQUIBB COMPANY, priority 2017, dated 2022) are IC50 values, retold here.

As a reminder, the IC50 is the concentration that gives 50% inhibition.

Where a name gives a salt, the structure may show the parent alone.

The target of the first assay is T1, human LPA1 (Homo sapiens, UniProt Q92633).
T1 construct: expressed in transfected cells; host or cells: Chinese hamster ovary (CHO) cells
T1 sequence (Q92633 whole entry): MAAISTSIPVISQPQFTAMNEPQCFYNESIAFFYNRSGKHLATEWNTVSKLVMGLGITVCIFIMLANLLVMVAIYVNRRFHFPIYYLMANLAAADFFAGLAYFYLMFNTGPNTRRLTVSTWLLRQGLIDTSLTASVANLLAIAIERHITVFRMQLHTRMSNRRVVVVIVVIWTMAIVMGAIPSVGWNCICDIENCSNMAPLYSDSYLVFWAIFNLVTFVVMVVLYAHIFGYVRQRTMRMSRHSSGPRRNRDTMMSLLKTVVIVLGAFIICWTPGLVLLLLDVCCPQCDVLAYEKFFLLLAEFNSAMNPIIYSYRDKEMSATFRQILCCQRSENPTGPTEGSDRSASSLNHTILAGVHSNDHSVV
Description: LPA1 functional antagonist assay (LPA-induced calcium flux in CHO cells overexpressing human LPA1). The format is cell-based. The note with it: inhibition of calcium flux induced by 10 nM LPA, CHO cells overexpressing human LPA1; read-out: hLPA1 IC50. Put shortly:
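Calcium flux was triggered by 10 nM LPA after 20 min room-temperature compound pre-incubation (final 0.08 nM to 5 μM, 0.5% DMSO) in human LPA1-overexpressing CHO cells carrying calcium dye. Buffer: HBSS with Ca/Mg, 20 mM HEPES, 0.1% fatty-acid-free BSA; IC50s from 4-parameter logistic fits.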
On the technique in general: Calcium assays in cells follow changes in intracellular calcium, usually with a dye or a luminescent sensor.
Regarding `Cc1nc(-c2nnn(C)c2CNc2nnc(C3CCC3)o2)ccc1O[C@H]1CCC[C@H](C(=O)O)C1` [Example 51], the half-inhibitory concentration (IC50) amounted to 59 nM.
The same measure, in the same setting: as for `Cc1nc(-c2nnn(C)c2Cn2nnnc2C(C)C)ccc1O[C@H]1CCC[C@H](C(=O)O)C1` [Example 298, (1S,3S)-3-{[2-methyl-6-(1-methyl-5-{[5-(propan-2-yl)-1H-1,2,3,4-tetrazol-1-yl]methyl}-1H-1,2,3-triazol-4-yl)pyridin-3-yl]oxy}cyclohexane-1-carboxylic acid], the figure is 96 nM; as for `Cc1nc(-c2nnn(C)c2CNc2noc(C3CC3(C)C)n2)ccc1O[C@H]1CCC[C@H](C(=O)O)C1` (some centres unmarked) [Example 181], 24.1 nM; as for `Cc1nc(-c2nnn(C)c2CNc2noc(C(C)C3CC3)n2)ccc1O[C@H]1CCC[C@H](C(=O)O)C1` (some centres unmarked) [Example 194], 25 nM.
Still for that read-out and setting: in the case of `CCCCc1nnn(Cc2c(-c3ccc(O[C@H]4CCC[C@H](C(=O)O)C4)cn3)nnn2C)n1` [Example 257, (1S,3S)-3-((6-(5-((5-butyl-2H-tetrazol-2-yl)methyl)-1-methyl-1H-1,2,3-triazol-4-yl)pyridin-3-yl)oxy)cyclohexane-1-carboxylic acid] it was 12.5 nM; in that of `Cc1nc(-c2nnn(C)c2Cn2nc(Cc3ccccc3)oc2=N)ccc1O[C@H]1CCC[C@H](C(=O)O)C1` [Example 41, (1S,3S)-3-((6-(5-((5-Benzyl-2-imino-1,3,4-oxadiazol-3(2H)-yl)methyl)-1-methyl-1H-1,2,3-triazol-4-yl)-2-methylpyridin-3-yl)oxy)cyclohexane-1-carboxylic acid, bis TFA salt], 221 nM.
Consider `Cn1nnc(-c2ccc(O[C@H]3CCC[C@H](C(=O)O)C3)cn2)c1Cn1nnnc1CC1CC1` [Example 251, (1S,3S)-3-((6-(5-((5-(cyclopropylmethyl)-1H-tetrazol-1-yl)methyl)-1-methyl-1H-1,2,3-triazol-4-yl)pyridin-3-yl)oxy)cyclohexane-1-carboxylic acid], for which the 50% inhibitory concentration (IC50) is 125 nM.
On the same count and under the same terms, as for `CCc1nc(-c2nnn(C)c2Cn2nnc(CC3CC3)n2)ccc1O[C@H]1CCC[C@H](C(=O)O)C1` [Example 307, (1S,3S)-3-{[6-(5-{[5-(cyclopropyl-methyl)-2H-1,2,3,4-tetrazol-2-yl]methyl}-1-methyl-1H-1,2,3-triazol-4-yl)-2-ethylpyridin-3-yl]oxy}cyclohexane-1-carboxylic acid], the figure is 32 nM; as for `Cc1nc(-c2nnn(C)c2Cn2ccc(Cc3ccccc3)n2)ccc1O[C@H]1CCC[C@H](C(=O)O)C1` [Example 317, (1S,3S)-3-((6-(5-((3-benzyl-1H-pyrazol-1-yl)methyl)-1-methyl-1H-1,2,3-triazol-4-yl)-2-methylpyridin-3-yl)oxy)cyclo-hexane-1-carboxylic acid], 63 nM; as for `Cc1nc(-c2nnn(C)c2CNc2noc(C3CC3)n2)ccc1O[C@H]1CCC[C@H](C(=O)O)C1` [Example 173], 266 nM.
Still for that read-out and setting: as for `Cc1nc(-c2nnn(C)c2Cn2nc(C3CCCC3)oc2=N)ccc1O[C@H]1CCC[C@H](C(=O)O)C1` [Example 45], the figure is 228 nM; as for `Cc1nc(-c2nnn(C)c2Cc2nnc(Cc3ccc(F)cc3)o2)ccc1O[C@H]1CCC[C@H](C(=O)O)C1` [Example 77], 260 nM.
Still for that read-out and setting: in the case of `Cc1nc(-c2nnn(C)c2CNc2cc(C(C)(C)C)on2)ccc1O[C@H]1CCC[C@H](C(=O)O)C1` [Example 169] it was 63 nM.
Take `Cc1nc(-c2nnn(C)c2CNc2noc(C3CC34CC4)n2)ccc1O[C@H]1CCC[C@H](C(=O)O)C1` (some centres unmarked) [Example 204]: the 50% inhibitory concentration (IC50) was 18.1 nM.
Same read-out and setting: as for `Cc1nc(-c2nnn(C)c2CNc2noc(C3(C)CC3)n2)ccc1O[C@H]1CCC[C@H](C(=O)O)C1` [Example 154], the figure is 441 nM; as for `Cc1nc(-c2nnn(C)c2Cn2nnnc2CC(C)C)ccc1O[C@H]1CCC[C@H](C(=O)O)C1` [Example 328, (1S,3S)-3-((6-(5-((5-isobutyl-1H-tetrazol-1-yl)methyl)-1-methyl-1H-1,2,3-triazol-4-yl)-2-methylpyridin-3-yl)oxy)cyclohexane-1-carboxylic acid], 118 nM.
As for `Cc1nc(-c2nnn(C)c2CNc2nc(C(C)C)no2)ccc1O[C@H]1CCC[C@H](C(=O)O)C1` [Example 59], the half-maximal inhibitory concentration (IC50) turned out to be 495 nM.
On the same count and under the same terms, in the case of `Cc1nc(-c2nnn(C)c2CNc2noc(CCCF)n2)ccc1O[C@H]1CCC[C@H](C(=O)O)C1` [Example 184] it was 74 nM; in that of `Cc1nc(-c2nnn(C)c2CNc2nc(-c3ccccc3)c(C)s2)ccc1O[C@H]1CCC[C@H](C(=O)O)C1` [Example 18], 15 nM; in that of `Cc1nc(-c2nnn(C)c2CNc2cnn(CC3CC3)n2)ccc1O[C@H]1CCC[C@H](C(=O)O)C1` [Example 31], 54 nM.
Still for that read-out and setting: in the case of `Cc1nc(-c2nnn(C)c2CNc2nc(C)n(-c3ccccc3)n2)ccc1O[C@H]1CCC[C@H](C(=O)O)C1` [Example 37] it was 46 nM; in that of `CCCc1nsc(OCc2c(-c3ccc(O[C@H]4CCC[C@H](C(=O)O)C4)c(C)n3)nnn2C)n1` [Example 127], 425 nM; in that of `Cc1nc(-c2nnn(C)c2CNc2nnc(C3CCCC3)o2)ccc1O[C@H]1CCC[C@H](C(=O)O)C1` [Example 48], 209 nM.
On the same count and under the same terms, as for `Cc1nc(-c2nnn(C)c2Cn2nnnc2CC2CCC2)ccc1O[C@H]1CCC[C@H](C(=O)O)C1` [Example 356, (1S,3S)-3-{[6-(5-{[5-(cyclobutyl-methyl)-1H-1,2,3,4-tetrazol-1-yl]methyl}-1-methyl-1H-1,2,3-triazol-4-yl)-2-methylpyridin-3-yl]oxy}cyclohexane-1-carboxylic acid], the figure is 146 nM; as for `Cc1nc(-c2nnn(C)c2Cc2noc(Cc3ccccc3)n2)ccc1O[C@H]1CCC[C@H](C(=O)O)C1` [Example 237, (1S,3S)-3-((6-(5-((5-benzyl-1,2,4-oxadiazol-3-yl)methyl)-1-methyl-1H-1,2,3-triazol-4-yl)-2-methylpyridin-3-yl)oxy)cyclohexane-1-carboxylic acid], 8 nM.
As to `CCCOCc1nnnn1Cc1c(-c2ccc(O[C@H]3CCC[C@H](C(=O)O)C3)c(C)n2)nnn1C` [Example 305, (1S,3S)-3-{[2-methyl-6-(1-methyl-5-{[5-(propoxymethyl)-1H-1,2,3,4-tetrazol-1-yl]methyl}-1H-1,2,3-triazol-4-yl)pyridin-3-yl]oxy}cyclohexane-1-carboxylic acid], the 50% inhibitory concentration (IC50) came to 243 nM.
On the same count and under the same terms, in the case of `Cc1nc(-c2nnn(C)c2Cc2noc(CC3CCC3)n2)ccc1O[C@H]1CCC[C@H](C(=O)O)C1` [Example 236, (1S,3S)-3-((6-(5-((5-(cyclobutyl-methyl)-1,2,4-oxadiazol-3-yl)methyl)-1-methyl-1H-1,2,3-triazol-4-yl)-2-methylpyridin-3-yl)oxy)cyclohexane-1-carboxylic acid] it was 28 nM.

The assay is the same for the next values; noted with them: read-out: hLPA1 IC50.
Take `Cc1nc(-c2nnn(C)c2Cn2nnc(N(C)Cc3ccccc3)n2)ccc1O[C@H]1CCC[C@H](C(=O)O)C1` [Example 364, (1S,3S)-3-((6-(5-((5-(benzyl(methyl)amino)-2H-tetrazol-2-yl)methyl)-1-methyl-1H-1,2,3-triazol-4-yl)-2-methylpyridin-3-yl)oxy)cyclohexane-1-carboxylic acid]: the IC50 turned out to be 273 nM.
Turning to `COc1ccc(-n2nnc(NCc3c(-c4ccc(O[C@H]5CCC[C@H](C(=O)O)C5)c(C)n4)nnn3C)n2)cc1` [Example 383, (1S,3S)-3-((6-(5-(((2-(4-methoxy-phenyl)-2H-tetrazol-5-yl)amino)methyl)-1-methyl-1H-1,2,3-triazol-4-yl)-2-methylpyridin-3-yl)oxy)cyclohexane-1-carboxylic acid], the IC50 stood at 513 nM.
Still for that read-out and setting: as for `CCCCN(CCCC)c1nnn(Cc2c(-c3ccc(O[C@H]4CCC[C@H](C(=O)O)C4)c(C)n3)nnn2C)n1` [Example 363, (1S,3S)-3-((6-(5-((5-(dibutylamino)-2H-tetrazol-2-yl)methyl)-1-methyl-1H-1,2,3-triazol-4-yl)-2-methyl-pyridin-3-yl)oxy)cyclohexane-1-carboxylic acid], the figure is 229 nM.
Same read-out and setting: in the case of `C=CCn1nnc(NCc2c(-c3ccc(O[C@H]4CCC[C@H](C(=O)O)C4)c(C)n3)nnn2C)n1` [Example 392, (1S,3S)-3-((6-(5-(((2-allyl-2H-tetrazol-5-yl)amino)methyl)-1-methyl-1H-1,2,3-triazol-4-yl)-2-methylpyridin-3-yl)oxy)cyclo-hexane-1-carboxylic acid] it was 167 nM; in that of `Cc1nc(-c2nnn(C)c2CNc2nnn(CC(C)C)n2)ccc1O[C@H]1CCC[C@H](C(=O)O)C1` [Example 388, (1S,3S)-3-((6-(5-(((2-isobutyl-2H-tetrazol-5-yl)amino)methyl)-1-methyl-1H-1,2,3-triazol-4-yl)-2-methylpyridin-3-yl)oxy)cyclo-hexane-1-carboxylic acid], 43 nM.
Consider `CCCCN(C)c1nnn(Cc2c(-c3ccc(O[C@H]4CCC[C@H](C(=O)O)C4)c(C)n3)nnn2C)n1` [Example 361, (1S,3S)-3-((6-(5-((5-(butyl(methyl)amino)-2H-tetrazol-2-yl)methyl)-1-methyl-1H-1,2,3-triazol-4-yl)-2-methylpyridin-3-yl)oxy)cyclo-hexane-1-carboxylic acid], for which the concentration for half-maximal inhibition (IC50) came out at 228 nM.
On the same count and under the same terms, in the case of `CCc1nc(-c2nnn(C)c2CNc2nc(C3CCCC3)ns2)ccc1O[C@H]1CCC[C@H](C(=O)O)C1` [Example 393, (1S,3S)-3-((6-(5-(((3-cyclopentyl-1,2,4-thiadiazol-5-yl)amino)methyl)-1-methyl-1H-1,2,3-triazol-4-yl)-2-ethylpyridin-3-yl)oxy)cyclohexane-1-carboxylic acid] it was 35 nM; in that of `CCc1nc(-c2nnn(C)c2Cn2cc(CC(C)C)nn2)ccc1O[C@H]1CCC[C@H](C(=O)O)C1` [Example 370, (1S,3S)-3-((2-ethyl-6-(5-((4-isobutyl-1H-1,2,3-triazol-1-yl)methyl)-1-methyl-1H-1,2,3-triazol-4-yl)pyridin-3-yl)oxy)cyclohexane-1-carboxylic acid], 66 nM.
